Laboratory results reported in ChEMBL document CHEMBL1201862, “PubChem BioAssay data set” (2004).
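Cultured in 96-well plates, cells were exposed to test compound for 48 hours across five concentrations. Here, GI50 denotes the concentration required for 50% inhibition of growth.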 The source made the active and inactive calls. Rule as the data show it: active = GI50 up to about 1.1 µM and inactive = higher.

Key:
Test in all cases: NCI tumour cell line growth inhibition, 48 h
KM-20L2 = system: KM-20L2
XF498 = system: XF498
DMS-114 = system: DMS-114
LXFL 529 = system: LXFL 529
SNB-78 = system: SNB-78
HOP-18 = system: HOP-18
M19-MEL = system: M19-MEL
DLD-1 = system: DLD-1
RXF 631 = system: RXF 631

Measured: GI50

COc1cc2[nH]c3c(c2cc1OC)CCN[C@@]31CC[C@@]2(CC3c4c(cc(OC)c(O)c42)CCN3C)C[C@@H]1OC (some centres not stated)
inactive: KM-20L2 34 µM | XF498 17.1 µM | DMS-114 20.2 µM | LXFL 529 40.1 µM | SNB-78 > 85.3 µM | HOP-18 > 38.7 µM | M19-MEL 19.4 µM | DLD-1 53 µM | RXF 631 7.78 µM

CC1=NN=C(NCCN(C)C)C/C1=C/c1ccccc1Cl
inactive: KM-20L2 58.3 µM | XF498 77.3 µM | DMS-114 > 100 µM | LXFL 529 > 100 µM | SNB-78 > 100 µM | HOP-18 61.7 µM | M19-MEL > 100 µM | DLD-1 > 100 µM | RXF 631 67.5 µM

COC(=O)C(CC(C)=O)CS(=O)(=O)CC(=O)C(=O)Nc1cccc([N+](=O)[O-])c1 (configuration not stated)
inactive: KM-20L2 > 100 µM | XF498 55.6 µM | DMS-114 > 100 µM | LXFL 529 > 100 µM | SNB-78 > 100 µM | HOP-18 > 100 µM | M19-MEL > 100 µM | DLD-1 > 100 µM | RXF 631 > 100 µM
